PubChem BioAssay AID248 (DTP/NCI, 2004)
“And” between values parts separate entries of the source, which are not always exact repeats. Equal values may be shown once. Inconclusive results and toxic doses are left out.

Tested on: L1210 leukemia ip in BDF1 mice, survival T/C
Test: NCI In Vivo Anticancer Drug Screen. Data for tumor model L1210 Leukemia (intraperitoneal) in B6D2F1 (BDF1) mice
Settings: endpoint: mean survival time, higher = longer survival
Summary of the method: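 Antitumor effect is assessed in tumor-bearing animals. Survival in the compound arm is compared with a vehicle-dosed control arm and expressed as their quotient.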

[1] = dose: 100.0 mg/kg/injection, schedule: Q04DX003 (ip), vehicle: saline with Tween-80
[2] = dose: 200.0 mg/kg/injection, schedule: Q04DX003 (ip), vehicle: saline with Tween-80
[3] = dose: 400.0 mg/kg/injection, schedule: Q04DX003 (ip), vehicle: saline with Tween-80
[4] = dose: 100.0 mg/kg/injection, schedule: Q01DX009 (ip), vehicle: saline
[5] = dose: 100.0 mg/kg/injection, schedule: Q04DX003 (ip), vehicle: saline
[6] = dose: 200.0 mg/kg/injection, schedule: Q04DX003 (ip), vehicle: saline
[7] = dose: 400.0 mg/kg/injection, schedule: Q01DX009 (ip), vehicle: saline
[8] = dose: 400.0 mg/kg/injection, schedule: Q04DX003 (ip), vehicle: saline
[9] = dose: 100.0 mg/kg/injection, schedule: Q01DX009 (ip), vehicle: saline with Tween-80
[10] = dose: 200.0 mg/kg/injection, schedule: Q01DX009 (ip), vehicle: saline with Tween-80
[11] = dose: 100.0 mg/kg/injection, schedule: Q01DX001 (ip), vehicle: saline
[12] = dose: 200.0 mg/kg/injection, schedule: Q01DX001 (ip), vehicle: saline
[13] = dose: 400.0 mg/kg/injection, schedule: Q01DX001 (ip), vehicle: saline
[14] = dose: 100.0 mg/kg/injection, schedule: Q04DX003 (ip), vehicle: Klucel (hydroxypropylcellulose) (HPC)
[15] = dose: 200.0 mg/kg/injection, schedule: Q04DX003 (ip), vehicle: Klucel (hydroxypropylcellulose) (HPC)
[16] = dose: 400.0 mg/kg/injection, schedule: Q04DX003 (ip), vehicle: Klucel (hydroxypropylcellulose) (HPC)

Structure (SMILES): CCOC(=O)Nc1cc2c(c(N)n1)N=C(CN(C)c1ccccc1)CN2
- T/C (dose: 5.0 mg/kg/injection, schedule: Q01DX009 (ip), vehicle: Klucel (hydroxypropylcellulose) (HPC)): 101 % of control
- T/C (dose: 6.25 mg/kg/injection, schedule: Q01DX009 (ip), vehicle: Klucel (hydroxypropylcellulose) (HPC)): 116 % of control
- T/C (dose: 12.5 mg/kg/injection, schedule: Q01DX009 (ip), vehicle: Klucel (hydroxypropylcellulose) (HPC)): 118 % of control
- T/C (dose: 15.0 mg/kg/injection, schedule: Q01DX009 (ip), vehicle: Klucel (hydroxypropylcellulose) (HPC)): 98 % of control
- T/C (dose: 25.0 mg/kg/injection, schedule: Q01DX009 (ip), vehicle: Klucel (hydroxypropylcellulose) (HPC)): 120 % of control
- T/C (dose: 50.0 mg/kg/injection, schedule: Q04DX002 (ip), vehicle: Klucel (hydroxypropylcellulose) (HPC)): 196 % of control
- T/C (dose: 100.0 mg/kg/injection, schedule: Q04DX002 (ip), vehicle: Klucel (hydroxypropylcellulose) (HPC)): 183 % of control
- T/C (dose: 200.0 mg/kg/injection, schedule: Q04DX002 (ip), vehicle: Klucel (hydroxypropylcellulose) (HPC)): 96 % of control

Structure (SMILES): COc1cc(C(=O)N/N=C/c2ccc(N(C)C)cc2)cc(OC)c1OC
- T/C [1]: 102 % of control
- T/C [2]: 102 % of control
- T/C [3]: 89 % of control

Structure (SMILES): CN(C)CCCNc1c2ccc(Cl)cc2nc2ccc(O)cc12
- T/C (dose: 12.5 mg/kg/injection, schedule: Q04DX002 (ip), vehicle: saline): 107 % of control
- T/C (dose: 25.0 mg/kg/injection, schedule: Q04DX002 (ip), vehicle: saline): 115 % of control

Structure (SMILES): COP(=O)(OC)C(OC(=O)C(C)(C)Br)=C(C)C
- T/C [1]: 102 % of control
- T/C [2]: 106 % of control
- T/C [3]: 113 % of control

Structure (SMILES): CC(=O)CCCCC(=O)O
- T/C [4]: 111 % of control
- T/C [5]: 96 % of control
- T/C (dose: 200.0 mg/kg/injection, schedule: Q01DX009 (ip), vehicle: saline): 89 % of control
- T/C [6]: 93 % of control
- T/C [7]: 94 % of control
- T/C [8]: 100 % of control

Structure (SMILES): CCCOC(c1ccc2c(c1)OCO2)C(C)Br (stereo unspecified)
- T/C [1]: 97 % of control
- T/C [2]: 94 % of control
- T/C [3]: 94 % of control

Structure (SMILES): CC(C)CC(=O)OC1CCCCC1
- T/C [1]: 106 % of control
- T/C [2]: 101 % of control
- T/C [3]: 95 % of control

Structure (SMILES): COC(=O)Cc1ccccc1OC
- T/C (dose: 50.0 mg/kg/injection, schedule: Q01DX009 (ip), vehicle: saline with Tween-80): 87 % of control
- T/C [9]: 87 % of control
- T/C [10]: 87 % of control

Structure (SMILES): CCSc1nc(C2NC(C(=O)O)CS2)cc(=O)[nH]1 (stereo unspecified)
- T/C (dose: 50.0 mg/kg/injection, schedule: Q01DX001 (ip), vehicle: Klucel (hydroxypropylcellulose) (HPC)): 98 % of control
- T/C (dose: 100.0 mg/kg/injection, schedule: Q01DX001 (ip), vehicle: Klucel (hydroxypropylcellulose) (HPC)): 98 % of control
- T/C (dose: 200.0 mg/kg/injection, schedule: Q01DX001 (ip), vehicle: Klucel (hydroxypropylcellulose) (HPC)): 97 % of control

Structure (SMILES): COC(=O)c1cc(C)cc(Oc2ccccc2[N+](=O)[O-])c1C
- T/C [11]: 96 % of control
- T/C [12]: 98 % of control
- T/C [13]: 98 % of control

Structure (SMILES): Nc1ncc(Br)cc1Br
- T/C [9]: 94 % of control
- T/C [1]: 101 % of control
- T/C [10]: 108 % of control
- T/C [2]: 95 % of control
- T/C (dose: 400.0 mg/kg/injection, schedule: Q01DX009 (ip), vehicle: saline with Tween-80): 116 % of control
- T/C [3]: 97 % of control

Structure (SMILES): O=C1CC23CCC(=O)C2(CC3)C1 (stereo unspecified)
- T/C (dose: 75.0 mg/kg/injection, schedule: Q04DX002 (ip), vehicle: saline): 103 % of control
- T/C (dose: 150.0 mg/kg/injection, schedule: Q04DX002 (ip), vehicle: saline): 103 % of control
- T/C (dose: 300.0 mg/kg/injection, schedule: Q04DX002 (ip), vehicle: saline): 100 % of control

Structure (SMILES): O=C(Sc1ccccc1)C(Cl)(Cl)Cl
- T/C (dose: 25.0 mg/kg/injection, schedule: Q01DX009 (ip), vehicle: saline): 103 % of control
- T/C (dose: 50.0 mg/kg/injection, schedule: Q01DX009 (ip), vehicle: saline): 97 % of control
- T/C (dose: 50.0 mg/kg/injection, schedule: Q04DX003 (ip), vehicle: saline): 97 % of control
- T/C (dose: 100.0 mg/kg/injection, schedule: Q01DX001 (ip), vehicle: acetone): 101 % of control
- T/C [4]: 95 % of control
- T/C [5]: 94 % of control
- T/C (dose: 200.0 mg/kg/injection, schedule: Q01DX001 (ip), vehicle: acetone): 95 % of control

Structure (SMILES): COc1cc(Cc2nccc3cc(OC)c(OC)cc23)c([N+](=O)[O-])cc1OC
- T/C [11]: 102 % of control
- T/C (dose: 100.0 mg/kg/injection, schedule: Q04DX003 (ip), vehicle: saline sonified): 106 % of control
- T/C [12]: 96 % of control
- T/C (dose: 200.0 mg/kg/injection, schedule: Q04DX003 (ip), vehicle: saline sonified): 89 % of control
- T/C (dose: 300.0 mg/kg/injection, schedule: Q01DX001 (ip), vehicle: saline): 96 % of control
- T/C (dose: 400.0 mg/kg/injection, schedule: Q04DX003 (ip), vehicle: saline sonified): 92 % of control

Structure (SMILES): O=C(CCN1C(=O)c2ccccc2C1=O)c1ccc(O)cc1
- T/C (dose: 6.25 mg/kg/injection, schedule: Q01DX009 (ip), vehicle: saline with Tween-80): 97 % of control
- T/C (dose: 12.5 mg/kg/injection, schedule: Q01DX009 (ip), vehicle: saline with Tween-80): 98 % of control
- T/C (dose: 25.0 mg/kg/injection, schedule: Q01DX009 (ip), vehicle: saline with Tween-80): 91 % of control

Structure (SMILES): CCCCCCCCCCCCCCSc1ccc2ccccc2c1
- T/C [14]: 92 % of control
- T/C [15]: 86 % of control
- T/C [16]: 87 % of control

Structure (SMILES): CN(C)N=Nc1n[nH]nc1C(N)=O
- T/C (dose: 50.0 mg/kg/injection, schedule: Q01DX001 (ip), vehicle: saline): 102 % of control
- T/C (dose: 66.0 mg/kg/injection, schedule: Q01DX Z (ip), vehicle: carboxymethylcellulose (CMC)): 112 % of control
- T/C [11]: 109 % of control and 118 % of control
- T/C [4]: 113 % of control
- T/C (dose: 100.0 mg/kg/injection, schedule: Q01DX Z (ip), vehicle: carboxymethylcellulose (CMC)): 106 % of control
- T/C [5]: 98 % of control
- T/C (dose: 134.0 mg/kg/injection, schedule: Q01DX009 (ip), vehicle: saline): 117 % of control
- T/C (dose: 168.0 mg/kg/injection, schedule: Q01DX Z (ip), vehicle: carboxymethylcellulose (CMC)): 116 % of control
- T/C [12]: 107 % of control and 118 % of control
- T/C [6]: 120 % of control
- T/C (dose: 287.0 mg/kg/injection, schedule: Q04DX003 (ip), vehicle: saline): 102 % of control
- T/C (dose: 287.5 mg/kg/injection, schedule: Q01DX001 (ip), vehicle: saline): 103 % of control
- T/C [13]: 115 % of control
- T/C [7]: 154 % of control
- T/C [8]: 124 % of control
- T/C (dose: 575.0 mg/kg/injection, schedule: Q01DX001 (ip), vehicle: saline): 109 % of control
- T/C (dose: 575.0 mg/kg/injection, schedule: Q04DX003 (ip), vehicle: saline): 110 % of control
- T/C (dose: 1150.0 mg/kg/injection, schedule: Q01DX001 (ip), vehicle: saline): 117 % of control
- T/C (dose: 1150.0 mg/kg/injection, schedule: Q04DX003 (ip), vehicle: saline): 112 % of control

Structure (SMILES): Cc1ccc(C(=O)c2ccccc2)cc1
- T/C [14]: 97 % of control
- T/C [15]: 104 % of control
- T/C [16]: 92 % of control

Structure (SMILES): CNC1CCCCC1
- T/C (dose: 50.0 mg/kg/injection, schedule: Q01DX001 (ip), vehicle: carboxymethylcellulose (CMC)): 96 % of control
- T/C (dose: 100.0 mg/kg/injection, schedule: Q01DX001 (ip), vehicle: carboxymethylcellulose (CMC)): 102 % of control
- T/C (dose: 200.0 mg/kg/injection, schedule: Q01DX001 (ip), vehicle: carboxymethylcellulose (CMC)): 106 % of control
- T/C (dose: 400.0 mg/kg/injection, schedule: Q01DX001 (ip), vehicle: carboxymethylcellulose (CMC)): 112 % of control

Structure (SMILES): C[n+]1c(-c2cccc3ccccc23)c2cc([N+](=O)[O-])ccc2c2ccccc21
- T/C (dose: 6.25 mg/kg/injection, schedule: Q01DX009 (ip), vehicle: water): 104 % of control
- T/C (dose: 12.5 mg/kg/injection, schedule: Q01DX009 (ip), vehicle: water): 100 % of control
- T/C (dose: 12.5 mg/kg/injection, schedule: Q04DX003 (ip), vehicle: water): 98 % of control
- T/C (dose: 25.0 mg/kg/injection, schedule: Q04DX003 (ip), vehicle: water): 105 % of control
- T/C (dose: 50.0 mg/kg/injection, schedule: Q04DX003 (ip), vehicle: water): 93 % of control
